Assays:
Assay type in all cases: in vivo
[1] = tested on: Alopecurus myosuroides; experiment: Test Example 4: herbicidal effect by application to foliage (diluvial soil, plastic box); conditions: application to foliage, application herbicide amount 320 g/ha
Summary of the method: (§1)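 Scores run from 0 (herbicidal ratio ≤5%) to 5 (≥90%, almost fully withered) and were assessed three weeks after foliar spraying. Seedlings had been raised for 14 days at 25-30° C in sterilized diluvial soil before treatment, with the emulsion diluted in water to the stated g/ha dose.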

[2] = tested on: Veronica persica; experiment: as above; conditions: application to foliage, application herbicide amount 320 g/ha
Summary of the method: as §1

[3] = tested on: Avena fatua; experiment: as above; conditions: application to foliage, application herbicide amount 320 g/ha
Summary of the method: as §1

[4] = tested on: Setaria viridis; experiment: as above; conditions: application to foliage, application herbicide amount 320 g/ha
Summary of the method: as §1

[5] = tested on: Digitaria ciliaris; experiment: as above; conditions: application to foliage, application herbicide amount 320 g/ha
Summary of the method: as §1

[6] = tested on: Echinochloa crus-galli var. crus-galli; experiment: as above; conditions: application to foliage, application herbicide amount 320 g/ha
Summary of the method: as §1

[7] = tested on: Apera spica-venti.; experiment: as above; conditions: application to foliage, application herbicide amount 320 g/ha
Summary of the method: as §1

[8] = tested on: Chenopodium album; experiment: as above; conditions: application to foliage, application herbicide amount 320 g/ha
Summary of the method: as §1

[9] = tested on: Galium spurium; experiment: as above; conditions: application to foliage, application herbicide amount 320 g/ha
Summary of the method: as §1

[10] = tested on: Lolium multiflorum Lam.; experiment: as above; conditions: application to foliage, application herbicide amount 320 g/ha
Summary of the method: as §1

[11] = tested on: Abutilon theophrasti; experiment: as above; conditions: application to foliage, application herbicide amount 320 g/ha
Summary of the method: as §1

[12] = tested on: Scirpus juncoides; experiment: Test Example 1: herbicidal activity, application before weed generation in submerged conditions; conditions: Application herbicide amount 320 g/ha; Seventeenth Table
Summary of the method: (§2)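 Alluvial soil in Wagner pots flooded to 4 cm water depth; weed seeds sown and 2.5 leaf stage rice seedlings transplanted. Emulsion diluted in water applied to water surface on sowing day at stated g/ha. Greenhouse 25° C. to 30° C.; effects scored 0–5 by herbicidal ratio after three weeks.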

[13] = tested on: Echinochloa oryzacola Vasing.; experiment: as above; conditions: Application herbicide amount 320 g/ha; Seventeenth Table
Summary of the method: as §2

[14] = tested on: Monochoria vaginalis; experiment: as above; conditions: Application herbicide amount 320 g/ha; Seventeenth Table
Summary of the method: as §2

[15] = tested on: transplanted Oryza sativa; experiment: Test Example 1: effect on crop, application before weed generation in submerged conditions; conditions: Application herbicide amount 320 g/ha; Seventeenth Table
Summary of the method: as §2

SMILES: CSCc1nnc2c(C(=O)Nc3nnc(C)o3)ccc(C(F)(F)F)n12 [1-030]
- J (Alopecurus myosuroides) herbicidal effect [1]: 3 (Herbicidal ratio of 40% or more and less than 70%)
- R (Veronica persica) herbicidal effect [2]: 4 (Herbicidal ratio of 70% or more and less than 90%)
- I (Avena fatua) herbicidal effect [3]: 4 (Herbicidal ratio of 70% or more and less than 90%)
- G (Setaria viridis) herbicidal effect [4]: 5 (Herbicidal ratio of 90% or more (almost completely withered))
- F (Digitaria ciliaris) herbicidal effect [5]: 5 (Herbicidal ratio of 90% or more (almost completely withered))
- H (Echinochloa crus-galli var. crus-galli) herbicidal effect [6]: 5 (Herbicidal ratio of 90% or more (almost completely withered))
- L (Apera spica-venti.) herbicidal effect [7]: 4 (Herbicidal ratio of 70% or more and less than 90%)
- O (Chenopodium album) herbicidal effect [8]: 5 (Herbicidal ratio of 90% or more (almost completely withered))
- Q (Galium spurium) herbicidal effect [9]: 4 (Herbicidal ratio of 70% or more and less than 90%)
- K (Lolium multiflorum Lam.) herbicidal effect [10]: 3 (Herbicidal ratio of 40% or more and less than 70%)
- M (Abutilon theophrasti) herbicidal effect [11]: 5 (Herbicidal ratio of 90% or more (almost completely withered))
- B: Scirpus juncoides (herbicidal effect grade) [12]: 3 (Herbicidal ratio of 40% or more and less than 70%)
- A: Echinochloa oryzicola Vasing. (herbicidal effect grade) [13]: 5 (Herbicidal ratio of 90% or more (almost completely withered))
- C: Monochoria vaginalis (herbicidal effect grade) [14]: 3 (Herbicidal ratio of 40% or more and less than 70%)
- a: transplanted Oryza sativa (effect on crop grade) [15]: 0 (Herbicidal ratio of 5% or less (almost no effect))

SMILES: Cc1nnc(NC(=O)c2ccc(C(F)(F)F)n3c(CSCC(F)(F)F)nnc23)o1 [1-031]
- J (Alopecurus myosuroides) herbicidal effect [1]: 1 (Herbicidal ratio of 5% or more and less than 20%)
- R (Veronica persica) herbicidal effect [2]: 4 (Herbicidal ratio of 70% or more and less than 90%)
- I (Avena fatua) herbicidal effect [3]: 2 (Herbicidal ratio of 20% or more and less than 40%)
- G (Setaria viridis) herbicidal effect [4]: 4 (Herbicidal ratio of 70% or more and less than 90%)
- F (Digitaria ciliaris) herbicidal effect [5]: 4 (Herbicidal ratio of 70% or more and less than 90%)
- H (Echinochloa crus-galli var. crus-galli) herbicidal effect [6]: 5 (Herbicidal ratio of 90% or more (almost completely withered))
- L (Apera spica-venti.) herbicidal effect [7]: 1 (Herbicidal ratio of 5% or more and less than 20%)
- O (Chenopodium album) herbicidal effect [8]: 5 (Herbicidal ratio of 90% or more (almost completely withered))
- Q (Galium spurium) herbicidal effect [9]: 3 (Herbicidal ratio of 40% or more and less than 70%)
- K (Lolium multiflorum Lam.) herbicidal effect [10]: 1 (Herbicidal ratio of 5% or more and less than 20%)
- M (Abutilon theophrasti) herbicidal effect [11]: 5 (Herbicidal ratio of 90% or more (almost completely withered))
- B: Scirpus juncoides (herbicidal effect grade) [12]: 3 (Herbicidal ratio of 40% or more and less than 70%)
- A: Echinochloa oryzicola Vasing. (herbicidal effect grade) [13]: 4 (Herbicidal ratio of 70% or more and less than 90%)
- C: Monochoria vaginalis (herbicidal effect grade) [14]: 3 (Herbicidal ratio of 40% or more and less than 70%)
- a: transplanted Oryza sativa (effect on crop grade) [15]: 0 (Herbicidal ratio of 5% or less (almost no effect))

SMILES: CCSc1nnc2c(C(=O)Nc3nnc(C)o3)ccc(C(F)(F)F)n12 [1-032]
- J (Alopecurus myosuroides) herbicidal effect [1]: 1 (Herbicidal ratio of 5% or more and less than 20%)
- R (Veronica persica) herbicidal effect [2]: 4 (Herbicidal ratio of 70% or more and less than 90%)
- I (Avena fatua) herbicidal effect [3]: 2 (Herbicidal ratio of 20% or more and less than 40%)
- G (Setaria viridis) herbicidal effect [4]: 5 (Herbicidal ratio of 90% or more (almost completely withered))
- F (Digitaria ciliaris) herbicidal effect [5]: 5 (Herbicidal ratio of 90% or more (almost completely withered))
- H (Echinochloa crus-galli var. crus-galli) herbicidal effect [6]: 5 (Herbicidal ratio of 90% or more (almost completely withered))
- L (Apera spica-venti.) herbicidal effect [7]: 2 (Herbicidal ratio of 20% or more and less than 40%)
- O (Chenopodium album) herbicidal effect [8]: 5 (Herbicidal ratio of 90% or more (almost completely withered))
- Q (Galium spurium) herbicidal effect [9]: 2 (Herbicidal ratio of 20% or more and less than 40%)
- K (Lolium multiflorum Lam.) herbicidal effect [10]: 1 (Herbicidal ratio of 5% or more and less than 20%)
- M (Abutilon theophrasti) herbicidal effect [11]: 5 (Herbicidal ratio of 90% or more (almost completely withered))
- B: Scirpus juncoides (herbicidal effect grade) [12]: 3 (Herbicidal ratio of 40% or more and less than 70%)
- A: Echinochloa oryzicola Vasing. (herbicidal effect grade) [13]: 5 (Herbicidal ratio of 90% or more (almost completely withered))
- C: Monochoria vaginalis (herbicidal effect grade) [14]: 2 (Herbicidal ratio of 20% or more and less than 40%)
- a: transplanted Oryza sativa (effect on crop grade) [15]: 2 (Herbicidal ratio of 20% or more and less than 40%)

SMILES: Cc1nnc(NC(=O)c2ccc(C(F)(F)F)n3c(SC(C)C)nnc23)o1 [1-033]
- J (Alopecurus myosuroides) herbicidal effect [1]: 1 (Herbicidal ratio of 5% or more and less than 20%)
- R (Veronica persica) herbicidal effect [2]: 5 (Herbicidal ratio of 90% or more (almost completely withered))
- I (Avena fatua) herbicidal effect [3]: 2 (Herbicidal ratio of 20% or more and less than 40%)
- G (Setaria viridis) herbicidal effect [4]: 5 (Herbicidal ratio of 90% or more (almost completely withered))
- F (Digitaria ciliaris) herbicidal effect [5]: 5 (Herbicidal ratio of 90% or more (almost completely withered))
- H (Echinochloa crus-galli var. crus-galli) herbicidal effect [6]: 5 (Herbicidal ratio of 90% or more (almost completely withered))
- L (Apera spica-venti.) herbicidal effect [7]: 2 (Herbicidal ratio of 20% or more and less than 40%)
- O (Chenopodium album) herbicidal effect [8]: 5 (Herbicidal ratio of 90% or more (almost completely withered))
- Q (Galium spurium) herbicidal effect [9]: 3 (Herbicidal ratio of 40% or more and less than 70%)
- K (Lolium multiflorum Lam.) herbicidal effect [10]: 1 (Herbicidal ratio of 5% or more and less than 20%)
- M (Abutilon theophrasti) herbicidal effect [11]: 5 (Herbicidal ratio of 90% or more (almost completely withered))
- B: Scirpus juncoides (herbicidal effect grade) [12]: 4 (Herbicidal ratio of 70% or more and less than 90%)
- A: Echinochloa oryzicola Vasing. (herbicidal effect grade) [13]: 5 (Herbicidal ratio of 90% or more (almost completely withered))
- C: Monochoria vaginalis (herbicidal effect grade) [14]: 3 (Herbicidal ratio of 40% or more and less than 70%)
- a: transplanted Oryza sativa (effect on crop grade) [15]: 0 (Herbicidal ratio of 5% or less (almost no effect))

SMILES: CC[S+]([O-])c1nnc2c(C(=O)Nc3nnc(C)o3)ccc(C(F)(F)F)n12 (stereo not drawn) [1-034]
- J (Alopecurus myosuroides) herbicidal effect [1]: 1 (Herbicidal ratio of 5% or more and less than 20%)
- R (Veronica persica) herbicidal effect [2]: 5 (Herbicidal ratio of 90% or more (almost completely withered))
- I (Avena fatua) herbicidal effect [3]: 3 (Herbicidal ratio of 40% or more and less than 70%)
- G (Setaria viridis) herbicidal effect [4]: 5 (Herbicidal ratio of 90% or more (almost completely withered))
- F (Digitaria ciliaris) herbicidal effect [5]: 5 (Herbicidal ratio of 90% or more (almost completely withered))
- H (Echinochloa crus-galli var. crus-galli) herbicidal effect [6]: 5 (Herbicidal ratio of 90% or more (almost completely withered))
- L (Apera spica-venti.) herbicidal effect [7]: 3 (Herbicidal ratio of 40% or more and less than 70%)
- O (Chenopodium album) herbicidal effect [8]: 5 (Herbicidal ratio of 90% or more (almost completely withered))
- Q (Galium spurium) herbicidal effect [9]: 3 (Herbicidal ratio of 40% or more and less than 70%)
- K (Lolium multiflorum Lam.) herbicidal effect [10]: 3 (Herbicidal ratio of 40% or more and less than 70%)
- M (Abutilon theophrasti) herbicidal effect [11]: 5 (Herbicidal ratio of 90% or more (almost completely withered))
- B: Scirpus juncoides (herbicidal effect grade) [12]: 4 (Herbicidal ratio of 70% or more and less than 90%)
- A: Echinochloa oryzicola Vasing. (herbicidal effect grade) [13]: 4 (Herbicidal ratio of 70% or more and less than 90%)
- C: Monochoria vaginalis (herbicidal effect grade) [14]: 4 (Herbicidal ratio of 70% or more and less than 90%)
- a: transplanted Oryza sativa (effect on crop grade) [15]: 3 (Herbicidal ratio of 40% or more and less than 70%)

SMILES: Cc1nnc(NC(=O)c2ccc(C(F)(F)F)n3c([S+]([O-])C(C)C)nnc23)o1 (stereo not drawn) [1-035]
- J (Alopecurus myosuroides) herbicidal effect [1]: 2 (Herbicidal ratio of 20% or more and less than 40%)
- R (Veronica persica) herbicidal effect [2]: 5 (Herbicidal ratio of 90% or more (almost completely withered))
- I (Avena fatua) herbicidal effect [3]: 2 (Herbicidal ratio of 20% or more and less than 40%)
- G (Setaria viridis) herbicidal effect [4]: 5 (Herbicidal ratio of 90% or more (almost completely withered))
- F (Digitaria ciliaris) herbicidal effect [5]: 5 (Herbicidal ratio of 90% or more (almost completely withered))
- H (Echinochloa crus-galli var. crus-galli) herbicidal effect [6]: 5 (Herbicidal ratio of 90% or more (almost completely withered))
- L (Apera spica-venti.) herbicidal effect [7]: 3 (Herbicidal ratio of 40% or more and less than 70%)
- O (Chenopodium album) herbicidal effect [8]: 5 (Herbicidal ratio of 90% or more (almost completely withered))
- Q (Galium spurium) herbicidal effect [9]: 2 (Herbicidal ratio of 20% or more and less than 40%)
- K (Lolium multiflorum Lam.) herbicidal effect [10]: 2 (Herbicidal ratio of 20% or more and less than 40%)
- M (Abutilon theophrasti) herbicidal effect [11]: 5 (Herbicidal ratio of 90% or more (almost completely withered))
- B: Scirpus juncoides (herbicidal effect grade) [12]: 4 (Herbicidal ratio of 70% or more and less than 90%)
- A: Echinochloa oryzicola Vasing. (herbicidal effect grade) [13]: 5 (Herbicidal ratio of 90% or more (almost completely withered))
- C: Monochoria vaginalis (herbicidal effect grade) [14]: 4 (Herbicidal ratio of 70% or more and less than 90%)
- a: transplanted Oryza sativa (effect on crop grade) [15]: 2 (Herbicidal ratio of 20% or more and less than 40%)
